The supplement of paper PMC8671470

Key:
Conditions in all cases: 72 h
SHI-1 [1] = assay: cell viability (% survival relative to DMSO control, bortezomib = 0%); higher = less cytotoxic
In short: (§1)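 Fifteen myeloid leukaemia cell lines were exposed to compounds at 1, 10, 100, 1000 or 10000 nM in 384-well plates for 72 h at 37 °C and 5% CO2. Viability was read by CellTiter-Glo luminescence and normalised, with vehicle as 100% and a 10 µM positive control as 0%. Values are percent survival averaged over duplicates.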

HEL [2] = assay: as above
In short: as §1

K-562 [3] = assay: as above
In short: as §1

KU-812 [4] = assay: as above
In short: as §1

KG-1 [5] = assay: as above
In short: as §1

NOMO-1 [6] = assay: as above
In short: as §1

KCL-22 [7] = assay: as above
In short: as §1

LAMA-84 [8] = assay: as above
In short: as §1

MV4-11 [9] = assay: as above
In short: as §1

THP-1 [10] = assay: as above
In short: as §1

BV-173 [11] = assay: as above
In short: as §1

ML-2 [12] = assay: as above
In short: as §1

Mono-Mac-6 [13] = assay: as above
In short: as §1

MOLM-13 [14] = assay: as above
In short: as §1

HL-60 [15] = assay: as above
In short: as §1

SHI-1 [16] = tested on: SHI-1
In short: (§2)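 For the IC50, dose–response curves were fitted with a log-logistic model. The data came from fifteen myeloid leukaemia cell lines grown in RPMI 1640 at densities in the linear growth range and incubated in 384-well plates for 72 h at 37 °C under 5% CO2. Doses were five tenfold steps from 1 to 10,000 nM in duplicate, and luminescent ATP viability was normalised to vehicle and to a positive control at 10 µM before four-parameter fitting.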

HEL [17] = tested on: HEL
In short: as §2

K-562 [18] = tested on: K-562
In short: as §2

KU-812 [19] = tested on: KU-812
In short: as §2

KG-1 [20] = tested on: KG-1
In short: as §2

NOMO-1 [21] = tested on: NOMO-1
In short: as §2

KCL-22 [22] = tested on: KCL-22
In short: as §2

LAMA-84 [23] = tested on: LAMA-84
In short: as §2

MV4-11 [24] = tested on: MV4-11
In short: as §2

THP-1 [25] = tested on: THP-1
In short: as §2

BV-173 [26] = tested on: BV-173
In short: as §2

ML-2 [27] = tested on: ML-2
In short: as §2

Mono-Mac-6 [28] = tested on: Mono-Mac-6
In short: as §2

MOLM-13 [29] = tested on: MOLM-13
In short: as §2

HL-60 [30] = tested on: HL-60
In short: as §2

C=CC(=O)c1ccc(O)cc1 [4-Acryloylphenol]
cell viability [%]
Conditions	1 nM	10 nM	100 nM	1000 nM	10000 nM
BV-173 [11]	82.2	86.6	104	93	-1.1
HEL [2]	80	90.5	94.7	115	26.6
HL-60 [15]	90	80.9	97.5	105	94.6
K-562 [3]	86.2	85.5	101	114	66.7
KCL-22 [7]	86.1	89.5	102	124	28.2
KG-1 [5]	83.7	92.7	99.8	114	86.2
KU-812 [4]	82.9	97.5	96.4	97.7	36.1
LAMA-84 [8]	86.7	91.9	99.9	105	56.7
ML-2 [12]	90	90.7	105	125	46.9
MOLM-13 [14]	81.7	79.4	83.1	124	78.7
MV4-11 [9]	91	89.9	94.3	137	-1.55
Mono-Mac-6 [13]	86.3	99.1	111	103	54.6
NOMO-1 [6]	88	92.6	107	102	2.21
SHI-1 [1]	99.7	92.7	102	114	103
THP-1 [10]	89.8	88.1	102	99.4	72.8

Conditions	IC50 (cell viability) [µM]
BV-173 [26]	3.1
HEL [17]	6.6
HL-60 [30]	> 10
K-562 [18]	> 10
KCL-22 [22]	6.68
KG-1 [20]	> 10
KU-812 [19]	7.96
LAMA-84 [23]	> 10
ML-2 [27]	9.62
MOLM-13 [29]	> 10
MV4-11 [24]	4.22
Mono-Mac-6 [28]	> 10
NOMO-1 [21]	3.44
SHI-1 [16]	> 10
THP-1 [25]	> 10

CC(=O)Nc1nc(C)c(-c2ccc(Cl)c(S(=O)(=O)NCCO)c2)s1 [PIK93]
cell viability [%]
Conditions	1 nM	10 nM	100 nM	1000 nM	10000 nM
BV-173 [11]	119	103	95.8	45.6	9.29
HEL [2]	111	94	96.8	74.5	33.1
HL-60 [15]	119	120	84.2	50.7	3.89
K-562 [3]	134	98.9	110	82.3	31.9
KCL-22 [7]	132	99.4	100	64.2	20.7
KG-1 [5]	93.9	106	100	80.8	32.6
KU-812 [4]	92.6	93.9	94.7	80.1	29.2
LAMA-84 [8]	113	95.3	102	90.6	55.8
ML-2 [12]	106	98.8	92.6	38.3	8.96
MOLM-13 [14]	129	111	89.9	50.2	0.72
MV4-11 [9]	96.3	95.7	84.5	51.1	0.217
Mono-Mac-6 [13]	95.8	90.9	85.5	52.4	17.6
NOMO-1 [6]	101	96.7	92.7	69.1	22.9
SHI-1 [1]	104	94.6	97.3	57.6	13.4
THP-1 [10]	105	102	112	74.7	24.5

Conditions	IC50 (cell viability) [µM]
BV-173 [26]	0.792
HEL [17]	2.19
HL-60 [30]	0.935
K-562 [18]	2.66
KCL-22 [22]	1.12
KG-1 [20]	2.56
KU-812 [19]	2.69
LAMA-84 [23]	8.06
ML-2 [27]	0.607
MOLM-13 [29]	0.959
MV4-11 [24]	1.09
Mono-Mac-6 [28]	1.02
NOMO-1 [21]	2.05
SHI-1 [16]	1.09
THP-1 [25]	1.51

CN(CCCOc1ccc(Cc2ccccc2)cc1)CCC(=O)O
cell viability [%]
Conditions	1 nM	10 nM	100 nM	1000 nM	10000 nM
BV-173 [11]	96.8	98.4	100	99.4	95.8
HEL [2]	107	113	102	129	110
HL-60 [15]	99.9	102	120	191	115
K-562 [3]	103	107	98.1	112	104
KCL-22 [7]	106	103	94.8	116	110
KG-1 [5]	94.1	110	104	108	92.6
KU-812 [4]	99.9	105	90.9	106	94.2
LAMA-84 [8]	110	119	95	98.2	91.9
ML-2 [12]	105	97	103	113	107
MOLM-13 [14]	119	122	91.9	133	79.1
MV4-11 [9]	99.1	97.6	96	125	87.8
Mono-Mac-6 [13]	106	90.1	101	107	89
NOMO-1 [6]	106	107	95.1	106	101
SHI-1 [1]	106	102	116	115	110
THP-1 [10]	104	103	96.1	98.4	102

Conditions	IC50 (cell viability) [µM]
BV-173 [26]	> 10
HEL [17]	> 10
HL-60 [30]	> 10
K-562 [18]	> 10
KCL-22 [22]	> 10
KG-1 [20]	> 10
KU-812 [19]	> 10
LAMA-84 [23]	> 10
ML-2 [27]	> 10
MOLM-13 [29]	> 10
MV4-11 [24]	> 10
Mono-Mac-6 [28]	> 10
NOMO-1 [21]	> 10
SHI-1 [16]	> 10
THP-1 [25]	> 10
